According to patent US10717968B2, “Polymerases for nucleotide analogue incorporation” (Pacific Biosciences of California, Inc., priority 2005, dated 2020):

Tests used:
Type in all cases: biochemical
[1] = test system: natural (native) nucleotides; test: Initial characterization: specific activity with natural (native) nucleotides
Method: The recombinant polymerase is initially evaluated on the quality of the protein preparation and basic catalytic activity. The polymerase's activity is analyzed with natural (native) nucleotides, and its specific activity (units/mg) is determined. Only catalytically competent mutants are selected for the next steps.

[2] = test system: dTTP, dATP, dGTP; test: Assay with three native nucleotides (dGTP, dTTP and dATP); settings: three native nucleotides at 20 μM; circular template, no G residues
Method: (§1) The Φ29 DNA polymerase (parental enzyme or mutant) was preincubated with DNA template (72 nucleotide circular DNA including mostly repetitive sequence AGTC) with annealed DNA primer. The preincubation mix includes three native nucleotides (dTTP, dATP and dGTP) and a terminal labeled nucleotide analogue (A488dC4P or A568dC4P) at 10 μM concentration. After a short preincubation, the reaction was started with MnCl2. The reaction was stopped with EDTA, and the products were separated using agarose gel electrophoresis and stained with SYBR Gold (Invitrogen). The average length of the DNA generated with DNA polymerase was determined and used to estimate the polymerization rate. See, e.g., Table 2 Columns G and H.
The Φ29 DNA polymerase (parental enzyme or mutant) was preincubated with DNA template (circular DNA including mostly repetitive sequence CAT, no G residues) with annealed DNA primer; the preincubation mix includes three native nucleotides (dTTP, dATP and dGTP). All subsequent steps were basically as described above in the section entitled “Assay with a single analogue at low concentration (10 μM) and three native nucleotides.” See, e.g., Table 2 Column B.

[3] = test system: A488dC4P; test: Nucleotide analogue concentration dependence of the polymerization rate, A488dC4P; settings: for A488dC4P, kel / Km: circular AGTC template, dTTP, dATP, dGTP 20 μM each; for Km as % of the Km of N62D Φ29 for A488dC4P: relative to N62D Φ29, from Table 2
Method: (§2) The most promising polymerase mutants are characterized by determination of the polymerization rate and Km for A488dC4P and A568dC4P and a subset of natural nucleotides (dATP, dGTP and dTTP), using a circular template (AGTC). Velocity is measured at several different concentrations of the analogs, A488dC4P (a representative good substrate) and A568dC4P (a representative less preferred substrate).
(§3) The Φ29 DNA polymerase (parental enzyme or mutant) was preincubated with a DNA template (72 nucleotide circular DNA including mostly repetitive sequence AGTC) with annealed DNA primer. The preincubation mix includes also three native nucleotides (dTTP, dATP and dGTP 20 μM each) and various concentrations of the terminally labeled analogue (A488dC4P or A568dC4P). All subsequent steps were basically as described above in the section entitled “Assay with a single analogue at low concentration (10 μM) and three native nucleotides.” An average length of the DNA products generated with DNA polymerase at an individual analogue concentration was determined, and the results were fitted with the equation k=kel*[S]*(Kd+[S])^−1 where k is the observed polymerization rate, kel is the polymerization rate at saturating substrate concentration (kel measures incorporation of multiple residues), and [S] is substrate concentration. See, e.g., Table 2 Columns C, D, E, and F.

[4] = test system: A568dC4P; test: Nucleotide analogue concentration dependence of the polymerization rate, A568dC4P; settings: for A568dC4P, kel / Km: circular AGTC template, dTTP, dATP, dGTP 20 μM each; for Km as % of the Km of N62D Φ29 for A568dC4P: relative to N62D Φ29, from Table 2
Method: as §2, §3

[5] = test system: A488dC4P; test: Assay with a single analogue at low concentration (10 μM) and three native nucleotides, A488dC4P; settings: single analogue at 10 μM and three native nucleotides
Method: as §1

[6] = test system: A568dC4P; test: Assay with a single analogue at low concentration (10 μM) and three native nucleotides, A568dC4P; settings: single analogue at 10 μM and three native nucleotides
Method: as §1

[7] = test system: A488dA4P, A633dC4P, A546dG4P, A594dT4P; test: Assay with four terminally labeled nucleotide analogs; settings: four terminally labeled analogs all at 10 μM
Method: Polymerization rate (bases/min) with four analogues at 10 μM (A488dA4P, A633dC4P, A546dG4P and A594dT4P) and circular template (AGTC, a 72mer circular template largely consisting of a repeating AGTC motif) is determined.
The procedure is basically as described above in the section entitled “Assay with a single analogue at low concentration (10 μM) and three native nucleotides,” with the exception that in this assay all nucleotides are terminally labeled (A488dA4P, A633dC4P, A546dG4P, A594dT4P all at 10 μM). See, e.g., Table 2 Column I.

[8] = test system: DNA template (72 nucleotide circular DNA) with annealed DNA primer; test: Processivity assay; settings: dNTP, MnCl2, heparin trap, 20 min; 1.0 minus Poff
Source text: The processivity (dissociation/kb) of the polymerase is estimated in a primer extension reaction performed in the presence of “Trap” (unlabeled competitor DNA or heparin). The processivity assay is designed to select mutants that retain the capability to synthesize a long DNA product in a continuous polymerization run (without polymerization reinitiation) with natural nucleotides. Mutants with a significant decrease in processivity are not selected for the next step.
The Φ29 DNA polymerase (parental enzyme or mutant) was preincubated with DNA template (72 nucleotide circular DNA including mostly repetitive sequence AGTC) with annealed DNA primer. After a short preincubation, the reaction was started with a starting mix including MnCl2, dNTP and heparin. Including the heparin in the reaction prevents polymerization from reinitiating after the polymerase dissociates from the template/primer, so that all generated DNA products are a result of continuous polymerization runs. After 20 min incubation, the reaction was stopped with EDTA and the products were separated using agarose gel electrophoresis and stained with SYBR Gold (Invitrogen). The DNA products were analyzed basically as described in Bibillo A, Eickbush T H. J Biol Chem. 2002 Sep. 20; 277(38):34836-45, Epub 2002 Jul. 5. The results were fitted with single exponential equation A*exp(−Poff*kb) where A is amplitude, Poff is the probability of premature polymerase dissociation, and kb is DNA length (1000 nucleotides). The probability of chain elongation (processivity) can be readily calculated by subtracting the Poff value from 1.0. See, e.g., Table 2 Column J.

[9] = test system: Alexa633-O-dC4P; test: Km and Vmax versus analogue Alexa633-O-dC4P; settings: Alexa633-O-dC4P (A633dC4P)
Method: (§4) Km and Vmax were determined for exemplary recombinant Phi29 polymerases and various nucleotide analogues.

[10] = test system: Alexa555-C2-dT4P; test: Km and Vmax versus analogue Alexa555-C2-dT4P
Method: as §4

[11] = test system: A633dC4P; test: Screening: rate with A633dC4P and dA, dG, dTTP; settings: for Rate High: 25 μM A633dC4P with 20 μM dA; for Ratio (Low/High): (rate at 5 μM A633dC4P)/(rate at 25 μM A633dC4P), each with 20 μM dA, 1 mM MnCl2, higher ratio = lower Km
[12] = test system: Alexa488-O-dA4P, FAM-Alexa532-O-dG4P, FAM-Alexa594-O-dT4P, Alexa633-O-dC4P; test: Screening: rate with set of four nucleotide analogues; settings: four analogues at 10 μM each, 1 mM MnCl2
[13] = test system: Alexa532-O-dG4P; test: Km and Vmax versus analogue Alexa532-O-dG4P
Method: as §4

[14] = test system: A594-dT4P; test: FRET stopped flow assay, rates of binding and product release; settings: nucleotide analogue A594-dT4P
Method: Rates of binding and product release were determined for exemplary recombinant Phi29 polymerases with nucleotide analogue A594-dT4P using a FRET stopped flow assay as schematically illustrated in FIG. 7A. Results are depicted graphically in FIGS. 7B-D for Phi29 N62D (FIG. 7B), N62D:E375Y (FIG. 7C), and N62D:E375W (FIG. 7D).

[15] = test system: Alexa568-dA4P; test: FRET stopped flow assay, branching rate; settings: dideoxy-terminated primer, native dATP trap
Method: Relative branching rate (dissociation of the analogue without incorporation, i.e., substrate dissociation) was also determined for exemplary recombinant Phi29 polymerases with nucleotide analogue Alexa568-dA4P (also called A568-dA4P), using a FRET stopped flow assay as schematically illustrated in FIG. 8A. In this technique, a template with a FRET donor dye compatible for FRET with the corresponding dye on the nucleotide analogue is employed. The primer has a dideoxy-termination at the 3′ end to prevent incorporation. The analogue is pre-mixed with the enzyme-template-dideoxy primer complex. In the stopped flow apparatus, this preformed complex is rapidly mixed with the corresponding native nucleotide (native dATP, in this example) in excess which serves as a “trap” to prevent rebinding of the analogue after it dissociates. The increase in donor dye fluorescence is monitored as a means of monitoring the dissociation/branching rate of the analogue.

| Substance | Specific Activity [1] | dTTP, dATP, dGTP (no G fork) V at 20 μM [2] | A488dC4P, kel [3] [bp/min] | Km [3] [µM] | Km as % of the Km of N62D Φ29 for A488dC4P [3] | A568dC4P, kel [4] | Km [4] [µM] | Km as % of the Km of N62D Φ29 for A568dC4P [4] | A488dC4P, V at 10 μM [5] | A568dC4P, V at 10 μM [6] | A488dA4P, A633dC4P, A546dG4P, A594dT4P, V at 10 μM [7] | Processivity [8] [kb^−1] | Km [9] [µM] | Km [10] [µM] | Rate High [11] | Ratio (Low/High) [11] | Hz Rate [12] [Hz] | Km [13] [µM] | Product Release Rate [14] [s⁻¹] | Branching Rate [15] [s⁻¹] | further results |
| --- | --- | --- | --- | --- | --- | --- | --- | --- | --- | --- | --- | --- | --- | --- | --- | --- | --- | --- | --- | --- | --- |
| His-E375H-N62D: Phi 29 polymerase with E375H and N62D mutations (SEQ ID NOs:4, 25) | 10,945,000 units/mg | 780 | 950 | 8 | about 40% | 930 | 11 | about 15% | 411 | 366 | 123 | 0.9510 | 17 | 15 | 510.1 | 0.445 | 9.4 |  |  |  |  |
| His-E375S-N62D: Phi 29 polymerase with E375S and N62D mutations (SEQ ID NOs:5, 26) | 10,961,000 units/mg | 940 | 1190 | 15 | about 75% | 1300 | 28 | about 38% | 420 | 332 | 74 | 0.9815 | 16.5 |  | 528.4 | 0.335 | 5.9 | 40 |  |  |  |
| N62D: E375W: Phi29 polymerase with E375W and N62D mutations |  |  |  |  |  |  |  |  |  |  |  |  | 1.8 | 5 | 699.4 | 0.677 | 19.1 | 16 | 76 | 43 | rates of binding and product release compared with the parent enzyme [14]: increased rates of binding and product release |
| N62D: E375Y: Phi29 polymerase with E375Y and N62D mutations |  |  |  |  |  |  |  |  |  |  |  |  | 2.5 | 6.6 | 498.5 | 0.694 | 12.1 | 18 | 117 | 31 | rates of binding and product release compared with the parent enzyme [14]: increased rates of binding and product release |
| N62D: N62D Phi29 DNA polymerase, parent enzyme in Tables 4, 6 and 7; tag not stated [reference compound] |  |  |  |  |  |  |  |  |  |  |  |  | 23 | 20 |  |  |  | 68 | 55 | 90 |  |
